Experimental findings from ChEMBL document CHEMBL1140679, “The identification of potent, selective, and bioavailable cathepsin S inhibitors” (Bioorg Med Chem Lett, 2007) are described below.

Series [1] can be described thus: Inhibition of antigen presentation in mouse B cells. It counts as functional, cell-based.
Series [2] concerns the target Cathepsin B (Homo sapiens, UniProt P07858). Briefly: Inhibition of human cathepsin B.
The nature of series [3]: Bioavailability in Sprague-Dawley rat. The format is ADME, organism-based. The note with it: in vivo.
Series [4] has as its target Cathepsin S (Homo sapiens, UniProt P25774). Put plainly: Inhibition of human cathepsin S.
Series [5] has as its target Cathepsin B (Rattus norvegicus, UniProt P00787). Briefly: Inhibition of rat liver lysosomal cathepsin B.
In series [6] the target is T1, Cathepsin K (Mus musculus, UniProt P55097).
T1 sequence (P55097 whole entry): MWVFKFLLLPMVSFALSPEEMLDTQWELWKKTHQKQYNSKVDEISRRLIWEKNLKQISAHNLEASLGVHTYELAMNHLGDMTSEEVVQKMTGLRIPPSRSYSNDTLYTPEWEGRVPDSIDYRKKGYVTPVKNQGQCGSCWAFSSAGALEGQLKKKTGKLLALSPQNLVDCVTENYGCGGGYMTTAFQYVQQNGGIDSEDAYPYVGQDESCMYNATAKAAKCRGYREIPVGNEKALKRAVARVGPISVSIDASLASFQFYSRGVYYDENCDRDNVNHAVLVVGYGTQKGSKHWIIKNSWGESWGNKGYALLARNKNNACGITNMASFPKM
Put plainly: Inhibition of mouse recombinant cathepsin K.

For the next series, the system named is Hepatocyte. Briefly: Metabolic stability in rat hepatocytes after 2 hrs. The format is ADME, cell-based.
Series [7] has as its target Procathepsin L (Homo sapiens, UniProt P07711). Put plainly: Inhibition of human cathepsin L.
The subject of series [8] is Mus musculus. Briefly: AUC (0 to 24 hrs) in C57BL/6 mouse at 5 mg/kg, po. It counts as ADME, organism-based, Plasma. Also noted: time < 24 hr, dose 5 mg/kg, route oral. The following applies: in vivo.
Series [9] has as its target T2, Cathepsin K (Homo sapiens, UniProt P43235).
T2 sequence (P43235 whole entry): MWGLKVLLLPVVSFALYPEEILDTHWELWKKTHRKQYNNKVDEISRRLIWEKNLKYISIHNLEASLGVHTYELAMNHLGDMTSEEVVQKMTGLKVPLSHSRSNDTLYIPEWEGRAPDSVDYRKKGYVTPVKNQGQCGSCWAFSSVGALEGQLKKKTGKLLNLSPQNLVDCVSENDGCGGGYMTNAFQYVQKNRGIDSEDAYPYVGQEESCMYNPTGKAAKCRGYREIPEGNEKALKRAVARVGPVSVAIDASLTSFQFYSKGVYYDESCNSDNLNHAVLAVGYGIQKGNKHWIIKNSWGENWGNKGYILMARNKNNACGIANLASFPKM
Put plainly: Inhibition of human cathepsin K.

Series [10] in a line: Cmax in Sprague-Dawley rat. The format is ADME, organism-based. The following applies: in vivo.
The target in series [11] is Cathepsin S (Mus musculus, UniProt O70370). Briefly: Inhibition of mouse recombinant cathepsin S.
The subject of series [12] is Mus musculus. Put plainly: AUC (0 to 24 hrs) in C57BL/6 mouse at 50 mg/kg, po. The following applies: in vivo. The format is ADME, organism-based, Plasma. Also noted: time < 24 hr, dose 50 mg/kg, route oral.
For series [13], the target named is Cathepsin S (Rattus norvegicus, UniProt Q02765). Briefly: Inhibition of rat spleen cathepsin S. The format is tissue-based.
Series [14] concerns the target Cathepsin B (Mus musculus, UniProt P10605). Briefly: Inhibition of mouse recombinant cathepsin B.
The target of series [15] is T3, Procathepsin L (Rattus norvegicus, UniProt P07154).
T3 sequence (P07154 whole entry): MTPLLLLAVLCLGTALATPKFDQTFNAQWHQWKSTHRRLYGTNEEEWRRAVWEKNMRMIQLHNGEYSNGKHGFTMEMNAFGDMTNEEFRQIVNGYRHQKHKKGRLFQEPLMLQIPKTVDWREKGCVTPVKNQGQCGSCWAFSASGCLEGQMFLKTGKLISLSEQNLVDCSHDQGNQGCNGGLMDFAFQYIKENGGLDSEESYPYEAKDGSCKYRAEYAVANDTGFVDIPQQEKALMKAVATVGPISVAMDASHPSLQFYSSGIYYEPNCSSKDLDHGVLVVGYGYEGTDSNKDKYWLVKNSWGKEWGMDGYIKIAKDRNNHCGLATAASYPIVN
Briefly: Inhibition of rat liver lysosomal cathepsin L.

Series [16] can be described thus: Half life in Sprague-Dawley rat. The note with it: in vivo. The format is ADME, organism-based.
The target in series [17] is T4, Procathepsin L (Mus musculus, UniProt P06797).
T4 sequence (P06797 whole entry): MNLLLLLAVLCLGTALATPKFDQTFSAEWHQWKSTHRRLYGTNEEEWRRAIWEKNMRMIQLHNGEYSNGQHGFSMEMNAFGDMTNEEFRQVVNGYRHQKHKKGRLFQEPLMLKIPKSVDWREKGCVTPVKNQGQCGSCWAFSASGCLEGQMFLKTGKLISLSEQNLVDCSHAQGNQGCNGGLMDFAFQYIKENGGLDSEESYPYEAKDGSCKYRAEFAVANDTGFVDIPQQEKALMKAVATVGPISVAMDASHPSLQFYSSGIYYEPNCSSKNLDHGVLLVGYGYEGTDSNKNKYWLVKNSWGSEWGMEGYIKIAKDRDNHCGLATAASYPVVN
Put plainly: Inhibition of mouse recombinant cathepsin L.

For series [18], the system named is Mus musculus. Briefly: Increase in p10 fragment accumulation in C57BL/6 mouse at 3 mg/kg/day for 5 days relative to control. The format is functional.
Series [19] concerns Mus musculus. Put plainly: AUC (0 to 24 hrs) in C57BL/6 mouse assessed as (R)-N-(1-cyanocyclopropyl)-3-(methylsulfonyl)-2-((S)-2,2,2-trifluoro-1-(4-fluorophenyl)ethylamino)propanamide levels at 10 mg/kg, po. It counts as ADME, organism-based, Plasma. More on the design: time < 24 hr, dose 10 mg/kg, route oral. The following applies: in vivo.
In series [20] the test system is Mus musculus. Briefly: AUC (0 to 24 hrs) in C57BL/6 mouse assessed as (R)-N-(1-cyanocyclopropyl)-3-(methylsulfonyl)-2-((S)-2,2,2-trifluoro-1-(4-fluorophenyl)ethylamino)propanamide levels at 50 mg/kg, po. It counts as ADME, organism-based, Plasma. Also noted: time < 24 hr, dose 50 mg/kg, route oral. The note with it: in vivo.
The species entered for series [21] is Mus musculus. Put plainly: AUC (0 to 24 hrs) in C57BL/6 mouse assessed as (R)-N-(1-cyanocyclopropyl)-3-(methylsulfonyl)-2-((S)-2,2,2-trifluoro-1-(4-fluorophenyl)ethylamino)propanamide levels at 0.01 w/w % after 5 days. The format is ADME, organism-based, Plasma. More on the design: time < 24 hr. The note with it: in vivo.
The subject of series [22] is Mus musculus. Briefly: AUC (0 to 24 hrs) in C57BL/6 mouse assessed as (R)-N-(1-cyanocyclopropyl)-3-(methylsulfonyl)-2-((S)-2,2,2-trifluoro-1-(4-fluorophenyl)ethylamino)propanamide levels at 150 mg/kg, po. The format is ADME, organism-based, Plasma. Also noted: time < 24 hr, dose 150 mg/kg, route oral. The note with it: in vivo.
For series [23], the species on record is Mus musculus. Put plainly: Drug level in C57BL/6 mouse blood at 0.05 w/w %. The format is ADME, organism-based. The note with it: in vivo, read-out: Drug uptake.
Series [24] is filed under the species Mus musculus. Put plainly: AUC (0 to 24 hrs) in C57BL/6 mouse assessed as (R)-N-(1-cyanocyclopropyl)-3-(methylsulfonyl)-2-((S)-2,2,2-trifluoro-1-(4-fluorophenyl)ethylamino)propanamide levels at 0.05 w/w % after 5 days. It counts as ADME, organism-based, Plasma. Also noted: time < 24 hr. The following applies: in vivo.
The species named for series [25] is Mus musculus. Briefly: Drug level in C57BL/6 mouse blood at 0.01 w/w %. It counts as ADME, organism-based. The note with it: in vivo, read-out: Drug uptake.
Series [26] is filed under the species Mus musculus. Briefly: AUC (0 to 24 hrs) in C57BL/6 mouse assessed as (R)-N-(1-cyanocyclopropyl)-3-(methylsulfonyl)-2-((S)-2,2,2-trifluoro-1-(4-fluorophenyl)ethylamino)propanamide levels at 0.25 w/w % after 5 days. It counts as ADME, organism-based, Plasma. The note with it: in vivo. Also noted: time < 24 hr.
For series [27], the species on record is Mus musculus. Briefly: Drug level in C57BL/6 mouse blood at 0.25 w/w %. The note with it: in vivo, read-out: Drug uptake. It counts as ADME, organism-based.
The next series concerns Rattus norvegicus. Briefly: Half life in po dosed Sprague-Dawley rat administered in 1:1 inwitor/tween 80 solution. The following applies: in vivo. The format is ADME, organism-based.
Series [28] is described as follows: Cmax in po dosed Sprague-Dawley rat administered in 1:1 inwitor/tween 80 solution. It counts as ADME, organism-based. More on the design: route oral. The note with it: in vivo.
Series [29] in a line: Bioavailability in po dosed Sprague-Dawley rat administered in 1:1 inwitor/tween 80 solution. The format is ADME, organism-based. The following applies: in vivo.

pIC50: −log10 of the molar value.

Sequence of Cathepsin S (Homo sapiens, UniProt P25774) (P25774 whole entry): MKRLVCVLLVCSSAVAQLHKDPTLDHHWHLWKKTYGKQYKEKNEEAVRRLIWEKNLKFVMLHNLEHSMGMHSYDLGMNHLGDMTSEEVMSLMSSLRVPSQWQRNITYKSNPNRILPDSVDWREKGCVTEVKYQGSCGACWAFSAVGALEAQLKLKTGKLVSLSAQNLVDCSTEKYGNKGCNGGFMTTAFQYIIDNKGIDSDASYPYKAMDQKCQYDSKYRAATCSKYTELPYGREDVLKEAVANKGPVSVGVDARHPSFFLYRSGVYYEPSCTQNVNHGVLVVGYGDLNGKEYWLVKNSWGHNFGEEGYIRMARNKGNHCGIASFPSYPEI
Sequence of Procathepsin L (Homo sapiens, UniProt P07711) (P07711 whole entry): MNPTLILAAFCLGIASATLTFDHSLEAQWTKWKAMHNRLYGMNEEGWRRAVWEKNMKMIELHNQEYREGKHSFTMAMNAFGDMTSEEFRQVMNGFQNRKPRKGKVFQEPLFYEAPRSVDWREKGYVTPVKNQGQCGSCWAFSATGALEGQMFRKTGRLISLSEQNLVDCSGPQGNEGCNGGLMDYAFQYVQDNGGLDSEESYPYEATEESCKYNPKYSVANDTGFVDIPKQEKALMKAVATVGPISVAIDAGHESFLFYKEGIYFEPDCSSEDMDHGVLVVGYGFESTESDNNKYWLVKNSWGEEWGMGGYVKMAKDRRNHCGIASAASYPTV
Sequence of Cathepsin S (Mus musculus, UniProt O70370) (O70370 whole entry): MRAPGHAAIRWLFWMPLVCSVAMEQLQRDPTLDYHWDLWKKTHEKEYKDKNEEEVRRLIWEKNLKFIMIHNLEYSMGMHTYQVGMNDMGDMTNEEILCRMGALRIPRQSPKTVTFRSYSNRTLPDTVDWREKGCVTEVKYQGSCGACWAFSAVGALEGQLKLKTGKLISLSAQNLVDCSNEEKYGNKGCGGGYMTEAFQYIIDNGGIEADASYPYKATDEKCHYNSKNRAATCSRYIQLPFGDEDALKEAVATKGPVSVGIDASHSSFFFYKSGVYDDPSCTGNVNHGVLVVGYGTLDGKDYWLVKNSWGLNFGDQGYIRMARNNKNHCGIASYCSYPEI
Sequence of Cathepsin S (Rattus norvegicus, UniProt Q02765) (Q02765 whole entry): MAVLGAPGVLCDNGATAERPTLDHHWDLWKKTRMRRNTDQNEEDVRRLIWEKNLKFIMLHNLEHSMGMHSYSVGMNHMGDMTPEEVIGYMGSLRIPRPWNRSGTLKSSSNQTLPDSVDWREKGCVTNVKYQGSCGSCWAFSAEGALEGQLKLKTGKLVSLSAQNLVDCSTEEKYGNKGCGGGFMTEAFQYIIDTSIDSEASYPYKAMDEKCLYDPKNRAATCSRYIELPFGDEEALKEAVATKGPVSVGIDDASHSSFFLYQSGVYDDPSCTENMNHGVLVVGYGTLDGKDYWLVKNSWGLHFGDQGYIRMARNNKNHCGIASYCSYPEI
Sequence of Cathepsin B (Mus musculus, UniProt P10605) (P10605 whole entry): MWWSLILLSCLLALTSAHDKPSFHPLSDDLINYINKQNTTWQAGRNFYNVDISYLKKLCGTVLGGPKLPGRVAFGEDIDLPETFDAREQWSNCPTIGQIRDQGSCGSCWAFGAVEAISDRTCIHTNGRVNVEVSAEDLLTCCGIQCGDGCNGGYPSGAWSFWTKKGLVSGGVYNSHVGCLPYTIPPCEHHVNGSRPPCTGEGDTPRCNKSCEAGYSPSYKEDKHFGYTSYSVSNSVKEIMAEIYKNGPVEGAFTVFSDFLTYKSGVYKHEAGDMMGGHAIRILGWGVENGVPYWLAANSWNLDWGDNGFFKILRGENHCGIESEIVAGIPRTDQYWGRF
Sequence of Cathepsin B (Rattus norvegicus, UniProt P00787) (P00787 whole entry): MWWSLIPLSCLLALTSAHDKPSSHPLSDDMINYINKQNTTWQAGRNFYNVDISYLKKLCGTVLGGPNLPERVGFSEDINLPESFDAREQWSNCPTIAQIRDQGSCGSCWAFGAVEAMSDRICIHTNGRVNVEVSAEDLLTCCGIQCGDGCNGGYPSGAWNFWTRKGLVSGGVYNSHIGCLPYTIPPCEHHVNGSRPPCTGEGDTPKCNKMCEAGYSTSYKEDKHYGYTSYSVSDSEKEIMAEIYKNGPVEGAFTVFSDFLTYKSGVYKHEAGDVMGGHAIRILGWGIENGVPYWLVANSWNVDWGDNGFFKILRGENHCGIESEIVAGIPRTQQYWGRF

Consider `CS(=O)(=O)C[C@H](N[C@@H](c1ccc(F)cc1)C(F)(F)F)C(=O)NC1(C#N)CC1`, for which the pIC50 in [1] was 7.36; against Cathepsin B [2] it was 5.96; at Cathepsin S [4] it was 8.74; against Cathepsin B [5], 6.50; on Cathepsin K [6] it was 5.78; on Procathepsin L [7], 5.99. Also, the negative-log IC50 (pIC50) against Cathepsin K [9] was 6.39; on Cathepsin S [11], 9.22; on Cathepsin S [13], 6.37; at Cathepsin B [14] it was 6.63; at Procathepsin L [15] it was 5.50; on Procathepsin L [17], 5.52. This compound returned a bioavailability in series [3] of 48%. Also, the Stability entry with Hepatocyte is recorded as “Stable”. Besides, the AUC came to 43 µM with Mus musculus [8] and 111 µM in the series on Mus musculus [12]. In series [10], this compound displayed a Cmax of 6300 nM. The same compound gave a half-life in series [16] of 5.2 h.

For the compound `C[S+]([O-])C[C@H](N[C@@H](c1ccc(F)cc1)C(F)(F)F)C(=O)NC1(C#N)CC1` (stereo partly specified), in the series with Mus musculus [18], the Activity came out at 24. In addition, the AUC in the series with Mus musculus [19] was determined as 63 µM; with Mus musculus [20] it was 274 µM; in the series listed under Mus musculus [21], 7 µM; in the series on Mus musculus [22], 750 µM; in the series filed under Mus musculus [24] it was 31 µM; in the series listed under Mus musculus [26], 87 µM. The pIC50 is 5.01 against Cathepsin B [2]; 6.14 against Cathepsin S [4]; less than 5.00 against Cathepsin B [5]; 5.23 at Cathepsin K [6]; less than 5.00 on Procathepsin L [7]; 5.95 at Cathepsin K [9]. Also, the pIC50 was 7.02 on Cathepsin S [11]; less than 5.00 against Cathepsin S [13]; 5.17 on Cathepsin B [14]; less than 5.00 at Procathepsin L [15]; less than 5.00 at Procathepsin L [17]. The concentration in the series listed under Mus musculus [23] was determined as 6000 nM; in the series listed under Mus musculus [25], 1000 nM; in the series listed under Mus musculus [27], 16000 nM.

Compound `N#CC1(NC(=O)[C@H](CS(=O)(=O)c2ccc(Cl)c(Cl)c2)N[C@@H](c2ccc(F)cc2)C(F)(F)F)CC1` returned a t1/2 in the series with Rattus norvegicus of 1.2 h. Moreover, the pIC50 at Cathepsin B [2] is 5.32; at Cathepsin S [4], 9.70; against Procathepsin L [7], 7.39; against Cathepsin K [9], 6.16. This compound also had a Cmax in series [28] of 250 nM. Further, the bioavailability in series [29] is 35%.

`CS(=O)(=O)C[C@H](N[C@@H](c1ccc(Br)cc1)C(F)(F)F)C(=O)NC1(C#N)CC1` registered a bioavailability in series [3] of 40%. The pIC50 was 7.96 at Cathepsin S [4]; 7.18 at Cathepsin B [5]; 5.99 on Cathepsin K [6]; 7.51 against Cathepsin K [9]; 8.80 at Cathepsin S [11]; 5.98 against Cathepsin S [13]. The pIC50 at Cathepsin B [14] is 7.16; on Procathepsin L [15], 5.89; at Procathepsin L [17] it was 5.65. Besides, the Stability entry in the series on Hepatocyte is listed as “Stable”. The compound further came in with a Cmax in series [10] of 3300 nM. This compound also showed a half-life in series [16] of 11 h.

In the series with Rattus norvegicus, `N#CC1(NC(=O)[C@H](CS(=O)(=O)c2ccc(Cl)c(Cl)c2)N[C@@H](c2ccccc2)C(F)(F)F)CC1` displayed a t1/2 of 1.7 h. Further, the pIC50 was 5.07 against Cathepsin B [2]; 9.70 against Cathepsin S [4]; 5.24 at Cathepsin B [5]; 5.83 at Cathepsin K [6]; 7.62 on Procathepsin L [7]; 6.50 on Cathepsin K [9]. The pIC50 at Cathepsin S [11] is greater than 9.70; against Cathepsin S [13] it was 7.82; on Cathepsin B [14], 5.52; against Procathepsin L [15] it was 7.32; on Procathepsin L [17], 7.23. For the same compound, the figures for the bioavailability in series [3] and in series [29] were 9% and 30%, respectively. Also, the Cmax in series [28] is 660 nM; in series [10] it was 88 nM. Besides, the half-life in [16] is 1.7 h.

As a reminder, the pIC50 is −log10 of the IC50, conventionally taken in molar units. Usually bioavailability stands for the share of a dose that reaches the circulation, judged against a reference dose that is usually intravenous. Read a low bioavailability as little systemic uptake. The term Cmax denotes the maximum level reached in the sampled fluid or tissue. As usually defined, the half-life is how long it takes for the measured level to halve. A low value points to rapid decline.
